Test [1] concerns the target T1, AjKissR1 (Apostichopus japonicus, UniProt A0A5B7LK60).
T1 sequence (A0A5B7LK60 1-378): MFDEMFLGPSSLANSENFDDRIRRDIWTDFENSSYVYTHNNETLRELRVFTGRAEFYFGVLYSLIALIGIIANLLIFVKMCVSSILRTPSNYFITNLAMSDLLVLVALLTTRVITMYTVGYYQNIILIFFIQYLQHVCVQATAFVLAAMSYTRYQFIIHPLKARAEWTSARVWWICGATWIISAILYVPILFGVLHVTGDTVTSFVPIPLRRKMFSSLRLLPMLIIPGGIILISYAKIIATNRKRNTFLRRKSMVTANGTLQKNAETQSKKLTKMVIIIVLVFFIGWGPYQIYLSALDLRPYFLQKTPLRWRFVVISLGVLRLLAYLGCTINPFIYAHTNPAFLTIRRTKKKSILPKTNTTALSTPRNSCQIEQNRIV
The test is described as follows: ERK1/2 phosphorylation (western blot) in HEK293 cells expressing FLAG-AjKissR1. In kind it is cell-based. Conditions: for Effect of inhibitor on AjKiss1b-10-activated ERK1/2 phosphorylation (in words): pre-treated 1 hr, U73122 10 μM, Gö6983 1.0 μM, AjKiss1b-10 1.0 μM. The procedure:
(§1) To examine the phosphorylation of ERK, cells that expressed AjKissr1/2 or other GPR54s were incubated for the indicated times with different concentrations of kisspeptins. Subsequently, cells were lysed with lysis buffer (Beyotime) that contained protease inhibitor (Roche) at 4°C for 30 min on a rocker and then scraped. Proteins were then electrophoresed on a 10% SDS polyacrylamide gel and transferred to polyvinylidene difluoride (PVDF) membranes. Membranes were blocked with 5% skimmed milk, then probed with rabbit anti-phospho-ERK1/2(Thr^202/Tyr^204) antibody (1:2000; Cell Signaling Technology), followed by detection using HRP-conjugated goat anti-rabbit IgG (Beyotime). Blots were stripped and reprobed using anti-ERK1/2 antibody (1:2000; Cell Signaling Technology) as a control for protein loading.
(§2) Immunoreactive bands were detected with an enhanced chemiluminescent substrate (Beyotime), and the membrane was scanned using a Tanon 5200 Chemiluminescent Imaging System (Tanon Science and Technology, Shanghai, China).
In general terms: A western blot detects proteins with antibodies after separation by electrophoresis.

For test [2], the target named is T2, AjKissR2 (Apostichopus japonicus, UniProt A0A5B7LIE4).
T2 sequence (A0A5B7LIE4 1-327): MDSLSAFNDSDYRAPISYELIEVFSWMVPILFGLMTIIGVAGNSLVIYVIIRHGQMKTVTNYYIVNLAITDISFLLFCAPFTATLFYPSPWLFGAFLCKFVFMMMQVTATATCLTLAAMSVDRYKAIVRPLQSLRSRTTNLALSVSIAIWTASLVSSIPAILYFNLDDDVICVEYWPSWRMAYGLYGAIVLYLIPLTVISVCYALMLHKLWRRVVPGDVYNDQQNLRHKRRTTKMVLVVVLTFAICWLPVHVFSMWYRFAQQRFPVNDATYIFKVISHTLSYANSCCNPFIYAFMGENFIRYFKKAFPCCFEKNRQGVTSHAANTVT
The test can be described thus: ERK1/2 phosphorylation (western blot) in HEK293 cells expressing FLAG-AjKissR2. Conditions: for Effect of inhibitor on AjKiss1b-10-activated ERK1/2 phosphorylation (in words): pre-treated 1 hr, U73122 10 μM, Gö6983 1.0 μM, AjKiss1b-10 1.0 μM. It counts as cell-based. The protocol: as §1, §2

Test [3] addresses T1, AjKissR1. The test can be described thus: cell-based. It counts as cell-based. Conditions: for Effect of inhibitor pre-treatment on AjKiss1a/AjKiss1b-elicited Ca2+ mobilization (in words): 100 nM AjKiss1a or AjKiss1b, pre-treated 12 hr PTX 100 ng/mL, or 1 hr FR900359 1.0 μM, U73122 10 μM, BAPTA-AM 100.0 μM, EGTA 5.0 mM; for Potency in triggering intracellular Ca2+ mobilization via AjKissR1 (in words): HEK293, Fura-2/AM, vertebrate kisspeptins and FITC-AjKiss1a at 1.0 μM. The procedure: (§3) The fluorescent Ca^2+ indicator Fura-2/AM was used to detect intracellular calcium flux ([Li et al., 2010]). Briefly, the HEK293 cells expressing the AjKissR1, AjKissR2 or vertebrate kisspeptin receptor were washed twice with PBS and suspended at 5 × 10^6 cells/mL in Hanks’ balanced salt solution. The cells were then loaded with 3.0 μM Fura-2/AM for 30 min and washed twice in Hanks’ solution. They were then stimulated with the indicated concentrations of different predicted A. japonicus kisspeptins or vertebrate kisspeptins. Finally, intracellular calcium flux was measured for 60 s, by determining the ratio of excitation wavelengths at 340 and 380 nm using a fluorescence spectrometer (Infinite 200 PRO, Tecan, Männedorf, Switzerland). All of the experiments for measuring Ca^2+ mobilization were repeated independently at least three times.
(Calcium flux is commonly read through the fluorescence of an indicator in the cells.)

Test [4] has as its target T2, AjKissR2. The test is described as follows: cell-based. It counts as cell-based. To be noted: for Effect of inhibitor pre-treatment on AjKiss1a/AjKiss1b-elicited Ca2+ mobilization (in words): 100 nM AjKiss1a or AjKiss1b, pre-treated 12 hr PTX 100 ng/mL, or 1 hr FR900359 1.0 μM, U73122 10 μM, BAPTA-AM 100.0 μM, EGTA 5.0 mM; for Potency in triggering intracellular Ca2+ mobilization via AjKissR2 (in words): HEK293, Fura-2/AM, vertebrate kisspeptins and FITC-AjKiss1a at 1.0 μM. The protocol: as §3

Test [5] addresses T1, AjKissR1. The test can be described thus: Ligand competition binding assay (FITC-AjKiss1a, FACS), HEK293/AjKissR1. Conditions: 1.0 μM FITC-AjKiss1a, read-out: IC50 (competitive displacement of FITC-AjKiss1a). The protocol: (§4) A fluorescence-activated cell sorter (FACS) was used to detect the binding ability of kisspeptins with AjKissR1 or AjKissR2. HEK293 cells expressing FLAG–AjKissR1 or FLAG–AjKissR2 were washed with PBS that contained 0.2% bovine serum albumin (FACS buffer). We designed and synthesized an N-terminal FITC-labeled AjKiss1a peptide (see 'Key resources table'). Different kisspeptins were diluted in the FACS buffer to different concentrations, then added to cells that were incubated on ice for 60–90 min. Cells were washed thrice with the FACS buffer and re-suspended in the FACS buffer with 1% paraformaldehyde for 15 min. The binding activity of the indicated kisspeptin peptides with AjKissR1 or AjKissR2 was determined by measuring the fluorescence of FITC and was presented as a percentage of total binding.

The target in test [6] is T2, AjKissR2. The test can be described thus: Ligand competition binding assay (FITC-AjKiss1a, FACS), HEK293/AjKissR2. To be noted: 1.0 μM FITC-AjKiss1a, read-out: IC50 (competitive displacement of FITC-AjKiss1a). The protocol: as §4
Where [7] appears, read: different concentrations for 5 min, immunoblot quantification, Figure 6A.

From PMC7282810, “Existence and functions of a kisspeptin neuropeptide signaling system in a non-chordate deuterostome species” (eLife, 2020) come the findings set out here.

Entries after “also recorded” stand apart in the source; their conditions may differ. *1 amine or outer side, *2 acyl side, *3 side chain or, on linkers, in order; H or OH if unused. Where a SMILES comes first, the peptide text is derived from it. Bridges are numbered along the chain shown (N, C = ends). Where no end group is shown, it is not given here. [ ]: non-standard residue; d: D form. The star is where a group is joined. Leu(3R-OH,Nα-propionyl) = CCC(=O)N[C@H](C(=O)*)[C@H](O)C(C)C; X1 = CC(C)[C@@H](O[*:3])[C@H](N[*:1])C(=O)[*:2]; NMeT = CN[C@H](C(=O)O)[C@@H](C)O; dPhLac = O=C(O)[C@H](O)Cc1ccccc1; NMeA = CN[C@@H](C)C(=O)O; NMeDha = C=C(NC)C(=O)O

Consider `COc1ccc2c(c1)CC[C@@H]1[C@@H]2CC[C@]2(C)[C@@H](NCCCCCCN3C(=O)C=CC3=O)CC[C@@H]12` [U73122, reference compound], for which the “Effect of inhibitor on AjKiss1b-10-activated ERK1/2 phosphorylation (in words)” value on AjKissR1 [1] and at AjKissR2 [2] was “significantly blocked” in each case. Also, the “Effect of inhibitor pre-treatment on AjKiss1a/AjKiss1b-elicited Ca2+ mobilization (in words)” value at AjKissR1 [3] and at AjKissR2 [4] was “significantly attenuated” throughout.

“HsNPS: human neuropeptide S, as a negative control (SFRNGVGTGMKKTSFQRAKS) [reference compound]”: in the test with AjKissR1 [3], the “Potency in triggering intracellular Ca2+ mobilization via AjKissR1 (in words)” value is given as “no potency”. The “Potency in triggering intracellular Ca2+ mobilization via AjKissR2 (in words)” value with AjKissR2 [4] is “no potency”.

What is called IC50 is the midpoint of a concentration-inhibition curve. As usually defined, the EC50 is the concentration at which the effect is half-maximal. As to SAVKNKNKSRARPPLLPF-NH2 [AjKiss1b], the IC50 at AjKissR1 [5] was determined as 0.353 µM; on AjKissR2 [6], 1.25 µM. Besides, the EC50 on AjKissR1 [3] came out at 0.00806 µM; at AjKissR2 [4], 0.0332 µM.

As for “GRQPNRNAHYRTLPF-NH2 [AjKiss1a-15, truncated peptide of AjKiss1a]”, the “Potency in triggering intracellular Ca2+ mobilization via AjKissR1 (in words)” value on AjKissR1 [3] is listed as “failed to activate”. The “Potency in triggering intracellular Ca2+ mobilization via AjKissR2 (in words)” value on AjKissR2 [4] was “failed to activate”.

“AHYRTLPF-NH2 [AjKiss1a-10, truncated peptide of AjKiss1a]”: the “Potency in triggering intracellular Ca2+ mobilization via AjKissR1 (in words)” value on AjKissR1 [3] was “failed to activate”. In addition, the “Potency in triggering intracellular Ca2+ mobilization via AjKissR2 (in words)” value on AjKissR2 [4] is “failed to activate”.

With “YNVNSFGLRF-NH2 [XtKiss1b-10, synthetic frog kisspeptin decapeptide, reference compound]”, at AjKissR1 [3], the “Potency in triggering intracellular Ca2+ mobilization via AjKissR1 (in words)” value is “higher potency; also recorded: potent”. Further, on AjKissR2 [4], the “Potency in triggering intracellular Ca2+ mobilization via AjKissR2 (in words)” value is “higher potency than that of HsKiss1-10; also recorded: potent”.

On to `O=C(O)CN(CCOCCOCCN(CC(=O)O)CC(=O)O)CC(=O)O` [EGTA, reference compound], for which the “Effect of inhibitor pre-treatment on AjKiss1a/AjKiss1b-elicited Ca2+ mobilization (in words)” value at AjKissR1 [3] and on AjKissR2 [4] was “significantly attenuated” in each case.

With `C=C1C(=O)N[C@@H](C)C(=O)N(C)[C@@H](C)C(=O)N[C@@H]([C@H](OC(=O)[C@@H](NC(=O)CC)[C@H](O)C(C)C)C(C)C)C(=O)N(C)[C@@H]([C@@H](C)OC)C(=O)O[C@H](C(C)C)[C@H](NC(C)=O)C(=O)O[C@H](Cc2ccccc2)C(=O)N1C` [FR900359, reference compound] (Ac-[X1][dPhLac][NMeDha]A[NMeA][X1](Leu(3R-OH,Nα-propionyl))[NMeT](Me); ester 1-C), the “Effect of inhibitor pre-treatment on AjKiss1a/AjKiss1b-elicited Ca2+ mobilization (in words)” value on AjKissR1 [3] and on AjKissR2 [4] was “completely blocked” each time.

Turning to `CC(=O)OCOC(=O)CN(CC(=O)OCOC(C)=O)c1ccccc1OCCOc1ccccc1N(CC(=O)OCOC(C)=O)CC(=O)OCOC(C)=O` [BAPTA-AM, 1,2-bis(o-aminophenoxy)ethane N,N,N',N'-tetraacetic acid acetoxymethyl ester, reference compound], the “Effect of inhibitor pre-treatment on AjKiss1a/AjKiss1b-elicited Ca2+ mobilization (in words)” value on AjKissR1 [3] and at AjKissR2 [4] was “significantly attenuated” throughout.

Consider `COc1ccc2c(c1)c(C1=C(c3c[nH]c4ccccc34)C(=O)NC1=O)cn2CCCN(C)C` [Gö6983], for which the “Effect of inhibitor on AjKiss1b-10-activated ERK1/2 phosphorylation (in words)” value at AjKissR1 [1] and on AjKissR2 [2] was “significantly blocked” throughout.

Consider “FNYNPFGLRF-NH2 [DrKiss2-10, synthetic zebrafish kisspeptin decapeptide, reference compound]”, for which the “Potency in triggering intracellular Ca2+ mobilization via AjKissR1 (in words)” value on AjKissR1 [3] is listed as “much lower potency; also recorded: potent”. Moreover, the “Potency in triggering intracellular Ca2+ mobilization via AjKissR2 (in words)” value on AjKissR2 [4] is on record as “higher potency than that of HsKiss1-10; also recorded: potent”.

On to “FITC–AGSLDc < CLEASC > EDVERRGRQPNRNAHYRTLPF-NH2 (disulfide) [FITC–AjKiss1a]”, for which the “Potency in triggering intracellular Ca2+ mobilization via AjKissR1 (in words)” value on AjKissR1 [3] is “comparable to that induced by the wild-type neuropeptide”. Also, on AjKissR2 [4], the “Potency in triggering intracellular Ca2+ mobilization via AjKissR2 (in words)” value is given as “comparable to that induced by the wild-type neuropeptide”.

For the compound “YNWNSFGLRF-NH2 [HsKiss1-10, synthetic human kisspeptin decapeptide, reference compound]”, the “Potency in triggering intracellular Ca2+ mobilization via AjKissR1 (in words)” value at AjKissR1 [3] is reported as “higher potency; also recorded: potent”. The “Potency in triggering intracellular Ca2+ mobilization via AjKissR2 (in words)” value on AjKissR2 [4] was “potent”.

Consider SRARPPLLPF-NH2 [AjKiss1b-10], for which the EC50 at AjKissR1 [1] (setting [7]) is 0.0316 µM; on AjKissR2 [2] (setting [7]) it was 0.0987 µM; at AjKissR1 [3], 0.00171 µM; on AjKissR2 [4], 0.0273 µM.

On to “YNLNSFGLRY-NH2 [DrKiss1-10, synthetic zebrafish kisspeptin decapeptide, reference compound]”, for which, on AjKissR1 [3], the “Potency in triggering intracellular Ca2+ mobilization via AjKissR1 (in words)” value was “much lower potency; also recorded: potent”. Besides, on AjKissR2 [4], the “Potency in triggering intracellular Ca2+ mobilization via AjKissR2 (in words)” value is given as “higher potency than that of HsKiss1-10; also recorded: potent”.
